The source of these data is article PMC9078697, “Discovery and preliminary SAR of 14-aryloxy-andrographolide derivatives as antibacterial agents with immunosuppressant activity” (RSC Advances, 2018).

Holding throughout (assay type): cell-based
The test system of one assay is E. coli. The experiment in a line: Bacteriostatic screening (growth, OD630) against E. coli. The note with it: for inhibition rate EC (symbol /): at 250 μM of tested compound; for inhibition rate (%) EC: at 250 μM of the tested compound. As for the experimental part:
(§1) The strategy in this study was to submit these synthesized compounds to a preliminary screening test against E. coli, S. aureus and E. faecalis (ciprofloxacin was used as a reference compound; see Table 1). […] The tested compound or ciprofloxacin (positive drug) was dissolved in DMSO and diluted with LB liquid medium into a stock solution containing 20% DMSO before use; the stock solution of the carrier was 20% DMSO in LB liquid medium. All the experiments, including blank controls, were performed in triplicate. Bacteriostatic screening was performed by applying a modified protocol of the National Committee on Clinical Laboratory Standards (NCCLS).[29] Briefly, E. coli, S. aureus and E. faecalis cells (American Type Culture Collection, ATCC) were grown in LB plate medium for one passage, then seeded in LB liquid medium and cultured at 37 °C for 12 h. After being diluted 1000 times, 190 μL diluted cells were aliquoted to 96-well plates; then, 10 μL stock solution of carrier or a gradient amount of the tested compound or the positive compound, ciprofloxacin, were added; the final concentration of DMSO was 1% in all wells. The blank controls contained 1% DMSO and LB medium but no bacterial cells.

The next assay deals with S. aureus. The assay can be described thus: Bacteriostatic screening (growth, OD630) against S. aureus. The note with it: for inhibition rate SA (symbol /): at 250 μM of tested compound; for inhibition rate (%) SA: at 250 μM of the tested compound. As for the experimental part:
as §1

The next assay has as its system E. faecalis. The assay can be described thus: Bacteriostatic screening (growth, OD630) against E. faecalis. The note with it: for inhibition rate (%) EF: at 250 μM of the tested compound; for IC50: 24 h, IC50 generated when inhibition at 250 μM was higher than 80%. As for the experimental part: as §1

Take `C=C1CCC2C3(C)COC(C)(C)OC3CCC2(C)C1CC=C1C(=O)OCC1Oc1ccc([N+](=O)[O-])c(F)c1` (stereo not drawn) [5a4, (14α)-(3′-Fluoro-4′-nitro)phenoxy-3,19-acetonylidene andrographolide]: in the assay with E. coli, the “inhibition rate EC (symbol /)” value is “/ (“/”represents no inhibition or lower than 10% inhibition rate at 250 μM of tested compound)”. Moreover, the “inhibition rate SA (symbol /)” value with S. aureus is “/ (“/”represents no inhibition or lower than 10% inhibition rate at 250 μM of tested compound)”. Moreover, the “inhibition rate (%) EF” value in the assay with E. faecalis was “(46) %”.
By IC50 is commonly meant the concentration that gives 50% inhibition. The low end stands for higher potency, the high end for lower potency. Turning to `C=C1CCC2C3(C)COC(C)(C)OC3CCC2(C)C1CC=C1C(=O)OCC1Oc1ccc([N+](=O)[O-])cc1C(=O)OC` (stereo not drawn) [5a1, (14α)-(2′-Carboxymethyl ester-4′-nitro)phenoxy-3,19-acetonylidene andrographolide], the “inhibition rate EC (symbol /)” value with E. coli was “/ (“/”represents no inhibition or lower than 10% inhibition rate at 250 μM of tested compound)”. For the same compound, the “inhibition rate (%) SA” value in the assay with S. aureus (250 µM) is on record as “(14) %”. In the assay on E. faecalis, this compound came in with an IC50 of 51.2 ± 11.6 µM.
As for `C=C1CCC2C3(C)COC(C)(C)OC3CCC2(C)C1CC=C1C(=O)OCC1Oc1ccc(OC)cc1` (stereo not drawn) [5b11, (14β)-(4′-Methoxy)phenoxy-3,19-acetonylidene andrographolide], the “inhibition rate EC (symbol /)” value in the assay with E. coli was “/ (“/”represents no inhibition or lower than 10% inhibition rate at 250 μM of tested compound)”. For the same compound, the “inhibition rate SA (symbol /)” value in the assay on S. aureus is recorded as “/ (“/”represents no inhibition or lower than 10% inhibition rate at 250 μM of tested compound)”. In addition, the “inhibition rate (%) EF” value in the assay with E. faecalis is given as “(39) %”.
“(14β)-(4′-Carboxy ethyl ester)phenoxy-3,19-acetonylidene andrographolide [5b9]”: in the assay with E. coli, the “inhibition rate EC (symbol /)” value is given as “/ (“/”represents no inhibition or lower than 10% inhibition rate at 250 μM of tested compound)”. In addition, the “inhibition rate (%) SA” value with S. aureus was “(15) %”. The “inhibition rate (%) EF” value in the assay on E. faecalis is listed as “(42) %”.
Turning to `C=C1CCC2C(C)(CO)C(O)CCC2(C)C1CC=C1C(=O)OCC1Oc1ccc([N+](=O)[O-])c(OC)c1` (stereo not drawn) [6a5, (14α)-(3′-methoxy-4′-nitro)phenoxy-andrographolide], in the assay with E. coli (250 µM), the “inhibition rate (%) EC” value is “(11) %”. In addition, in the assay on S. aureus (250 µM), the “inhibition rate (%) SA” value is “(10) %”. The IC50 in the assay with E. faecalis turned out to be 50.4 ± 2.7 µM.
As to “(14α)-(2′-Fluoro-4′-nitro)phenoxy-3,19-acetonylidene andrographolide [5a2]”, in the assay with E. coli, the “inhibition rate (%) EC” value is on record as “(20) %”. The “inhibition rate (%) SA” value with S. aureus is reported as “(20) %”. Moreover, in the assay with E. faecalis, the IC50 came to 56.7 ± 6.5 µM.
`C=C1CCC2C(C)(CO)C(O)CCC2(C)C1CC=C1C(=O)OCC1Oc1ccc(OC)cc1` (stereo not drawn) [6b11, (14β)-(4′-Methoxy)phenoxy-andrographolide]: in the assay on E. coli, the “inhibition rate EC (symbol /)” value is given as “/ (“/”represents no inhibition or lower than 10% inhibition rate at 250 μM of tested compound)”. Also, in the assay with S. aureus, the “inhibition rate SA (symbol /)” value is “/ (“/”represents no inhibition or lower than 10% inhibition rate at 250 μM of tested compound)”. For the same compound, in the assay with E. faecalis, the “inhibition rate (%) EF” value is reported as “(17) %”.
Take `C=C1CCC2C3(C)COC(C)(C)OC3CCC2(C)C1CC=C1C(=O)OCC1Oc1ccc([N+](=O)[O-])c(OC)c1` (stereo not drawn) [5b5, (14β)-(3′-Methoxy-4′-nitro)phenoxy-3,19-acetonylidene andrographolide]: in the assay on E. coli (250 µM), the “inhibition rate (%) EC” value is reported as “(18) %”. Moreover, the “inhibition rate (%) SA” value in the assay with S. aureus (250 µM) was “(32) %”. Besides, the “inhibition rate (%) EF” value with E. faecalis (250 µM) was “(34) %”.
Turning to “(14β)-(Quinolyl-4′-oxy)-3,19-acetonylidene andrographolide [5b16]”, the “inhibition rate EC (symbol /)” value in the assay with E. coli is on record as “/ (“/”represents no inhibition or lower than 10% inhibition rate at 250 μM of tested compound)”. In addition, in the assay on S. aureus, the “inhibition rate SA (symbol /)” value is “/ (“/”represents no inhibition or lower than 10% inhibition rate at 250 μM of tested compound)”. Also, the IC50 in the assay on E. faecalis came to 15.5 ± 4.2 µM.
Take `C=C1CCC2C3(C)COC(C)(C)OC3CCC2(C)C1CC=C1C(=O)OCC1Oc1ccc([N+](=O)[O-])cc1C(=O)OC` (stereo not drawn) [5b1, (14β)-(2′-Carboxymethyl ester-4′-nitro)phenoxy-3,19-acetonylidene andrographolide]: in the assay with E. coli, the “inhibition rate (%) EC” value is listed as “(22) %”. Moreover, the “inhibition rate (%) SA” value in the assay on S. aureus (250 µM) was “(20) %”. Moreover, the “inhibition rate (%) EF” value in the assay on E. faecalis is given as “(56) %”.
